# Results published in US10570179B2, “Substituted urea depsipeptide analogs as activators of the CLPP endopeptidase” (priority 2016, dated 2020).
# Numbered stars: 1 amine (or outer) side, 2 acyl side, 3 side chain; on linkers, the order of the positions; unused ones are H or OH. Bridge positions count the residues as written; N and C are the ends. Square brackets hold non-standard residues; d marks the D form. Peptide text beside a SMILES is read from it. * marks the point of attachment. Piperazine(2S-CO,4-Me) = CN1CCN[C@H](C(=O)O)C1; Phe(3-Me) = Cc1cccc(C[C@H](N)C(=O)O)c1; NH(4-Cl-2-F-phenyl) = Fc1cc(Cl)ccc1N*; Pro(4R-Me) = C[C@H]1CN[C@H](C(=O)O)C1; Hyp = O=C(O)[C@@H]1C[C@@H](O)CN1; aThr = C[C@H](O)[C@H](N)C(=O)O; Pip = O=C(O)[C@@H]1CCCCN1; CO = O=C([*:1])[*:2]
# What was measured:
# [1] = Cytotoxicity assay (CellTiter-Glo cell viability); type: cell-based; details: African green monkey
# Procedure: Cytotoxicity was determined by determining the effect of compounds on cell viability. Vero (kidney epithelial cells; ATCC CCL-81) monolayers were trypsinized and 5000 cells/well were seeded (10-15% confluency) into white-wall, flat bottom 96 well microwell plates (Corning) using enriched Dulbecco's Modified Eagle's Medium (Hyclone: DMEM/High Glucose) containing 10% Fetal Bovine Serum (ATCC-30-2020). Plates were incubated overnight at 37° C. in the presence of 5% CO2. Drug-free media was then replaced with media containing serial dilutions of test compound or DMSO carrier. After an additional 72 hours of incubation, viability was indirectly measured using the CellTiter-Glo® Luminescent Cell Viability (Promega) assay. Assay plates were read at peak emission wavelength of 560 nm using a EnVision® Multilabel Plate Reader (Perkin Elmer) or PHERAstar FS Multilabel reader (BMG, Cary, N.C.). The concentration of test compounds that inhibited growth by 50% (IC50 value) was computed using nonlinear regression based fitting of inhibition curves using log [inhibitor] vs. response-variable slope (four parameters)—symmetrical equation, in GraphPad Prism version 6 [GraphPad Software, La Jolla, Calif. USA, www.graphpad.com]. For each experiment, compounds were tested in duplicate. IC50 values presented are the range of two biologically independent experiments.
# S. pneumoniae = test: Minimal inhibitory concentration, microbroth dilution; type: cell-based; details: Streptococcus pneumoniae; MIC; read-out: Minimal Inhibitory Concentrations (μM) S. pneumoniae
# How it was run: (§1)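 MIC is recorded by eye as the lowest drug concentration that stops bacterial growth. Compound is serially diluted twofold in broth, starting at 200 μM final, and bacteria are added at roughly 10^5 cfu/mL. Incubation runs overnight at 37 °C under aerobic conditions, per CLSI guidance.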
# B. subtilis = test: as above; type: cell-based; details: Bacillus subtilis; MIC; read-out: Minimal Inhibitory Concentrations (μM) B. subtilis
# How it was run: as §1
# S. pyogenes = test: as above; type: cell-based; details: Streptococcus pyogenes; MIC; read-out: Minimal Inhibitory Concentrations (μM) S. pyogenes
# How it was run: as §1
# Plasma pharmacokinetics = type: in vivo, male BALB/c mice; details: male, BALB/c, mouse, in vivo, iv; for Vd: 10 mg/kg, Route i.v., read-out: Vss
Compound,IC50 at 72 h [1],MIC (S. pneumoniae),MIC (B. subtilis),MIC (S. pyogenes),AUC(0-inf) (Plasma pharmacokinetics),AUC(0-t) (Plasma pharmacokinetics),C^0 (Plasma pharmacokinetics),clearance (Plasma pharmacokinetics),half-life (Plasma pharmacokinetics),Vd (Plasma pharmacokinetics)
"Cc1cccc(C[C@H](NC(=O)Nc2ccc(Cl)cc2F)C(=O)N[C@@H]2C(=O)N3C[C@H](O)C[C@H]3C(=O)N3CCCC[C@H]3C(=O)N[C@@H](C)C(=O)N3C[C@H](C)C[C@H]3C(=O)O[C@H]2C)c1 [Compound 6, (S)-2-(3-(4-CHLORO-2-FLUOROPHENYL)UREIDO)-N-((2R,6S,8AS,14AS,16R,20S,21S,23AS)-16-HYDROXY-2,6,21-TRIMETHYL-5,8,14,19,23-PENTAOXOOCTADECAHYDRO-1H,5H,14H,19H-PYRIDO[2,1-I]DIPYRROLO[2,1-C:2′,1′-L][1]OXA[4,7,10,13]TETRAAZACYCLOHEXADECIN-20-YL)-3-(M-TOLYL)PROPANAMIDE] ({NH(4-Cl-2-F-phenyl)-CO}-[Phe(3-Me)][aThr][Hyp][Pip]A[Pro(4R-Me)]; ester 2-C)",50.5 ± 3.8 µM,0.039 µM,0.156 µM,0.156 µM,11900 ng·h/mL,11500 ng·h/mL,34296.43 ng/mL,14 mL/min/kg,2.82 h,1.02 L/kg
"Cc1cccc(C[C@H](NC(=O)Nc2ccc(Cl)cc2F)C(=O)N[C@@H]2C(=O)N3CCC[C@H]3C(=O)N3CCN(C)C[C@H]3C(=O)N[C@@H](C)C(=O)N3C[C@H](C)C[C@H]3C(=O)O[C@H]2C)c1 [Compound 11, (S)-2-(3-(4-CHLORO-2-FLUOROPHENYL)UREIDO)-N-((6AS,12S,13S,15AS,17R,21S,23AS)-2,13,17,21-TETRAMETHYL-6,11,15,20,23-PENTAOXOOCTADECAHYDRO-2H,6H,11H,15H-PYRAZINO[2,1-I]DIPYRROLO[2,1-C:2′,1′-L][1]OXA[4,7,10,13]TETRAAZACYCLOHEXADECIN-12-YL)-3-(M-TOLYL)PROPANAMIDE] ({NH(4-Cl-2-F-phenyl)-CO}-[Phe(3-Me)][aThr]P[Piperazine(2S-CO,4-Me)]A[Pro(4R-Me)]; ester 2-C)",> 10 µM,0.039 µM,0.078 µM,0.078 µM,5040 ng·h/mL,5000 ng·h/mL,9127.72 ng/mL,33.1 mL/min/kg,1.35 h,2.28 L/kg
